Data reported in US9828351B2, “Enzyme interacting agents” (MONASH UNIVERSITY, priority 2014, dated 2017).

How the values were obtained:
[1] = biological target: T1, recombinant human SphK2 (Homo sapiens, UniProt Q9NRA0); assay: SphK2 activity assay (32P-labelled S1P production); assay type: biochemical; details: 10 μM compound; % of activity compared to control (DMSO vehicle only); read-out: SphK2% actvity at 10 μm
T1 construct: purchased Johnson and Johnson
T1 sequence (Q9NRA0 1-654): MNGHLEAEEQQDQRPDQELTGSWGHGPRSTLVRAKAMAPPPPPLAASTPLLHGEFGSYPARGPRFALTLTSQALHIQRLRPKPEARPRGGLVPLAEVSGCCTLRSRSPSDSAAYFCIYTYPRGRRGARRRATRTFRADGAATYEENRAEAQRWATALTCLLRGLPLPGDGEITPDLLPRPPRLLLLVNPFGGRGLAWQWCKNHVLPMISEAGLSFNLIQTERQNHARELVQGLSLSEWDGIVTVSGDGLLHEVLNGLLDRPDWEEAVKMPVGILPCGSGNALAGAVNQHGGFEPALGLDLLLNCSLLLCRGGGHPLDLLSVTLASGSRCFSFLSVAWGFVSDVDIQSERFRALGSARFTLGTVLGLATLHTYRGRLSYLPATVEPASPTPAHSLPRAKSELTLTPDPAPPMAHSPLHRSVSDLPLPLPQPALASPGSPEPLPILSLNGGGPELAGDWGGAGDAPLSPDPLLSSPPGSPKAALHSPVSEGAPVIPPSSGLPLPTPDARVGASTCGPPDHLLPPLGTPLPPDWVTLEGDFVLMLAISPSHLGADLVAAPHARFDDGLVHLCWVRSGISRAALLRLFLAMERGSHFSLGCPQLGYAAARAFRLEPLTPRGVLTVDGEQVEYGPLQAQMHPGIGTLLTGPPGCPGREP
Protocol: The SphK assays employed, measure SphK activity through the production of ^32P-labelled S1P following the addition of exogenous Sph and [γ^32P] ATP.
Activities of SphK1 and SphK2 were determined using identical assay conditions with the exception that SphK1 assays used 3 ng/assay recombinant his tagged human SphK1 (made in the lab in a baculovirus system using insect cells), while SphK2 assays used 30 ng/assay recombinant human SphK2 (purchased by Johnson and Johnson).
Compounds were dissolved in DMSO at 10 mM, the mixture was vortexed (and sonicated if necessary). Stock solutions were kept at 4° C. until used.
Aliquots were made containing 100 μM drug compound. These aliquots were then diluted in assay buffer: 100 mM tris/HCl pH 7.4, 100 mM NaCl, 1 mM sodium orthovanadate, 10 mM NaF to make up a 10 μM solution.
Recombinant enzyme was diluted in assay buffer (above) to make up a final concentration of 0.03 ng/μL (SphK1) or 0.33 ng/μL (SphK2).
40 μL recombinant enzyme was added to an Eppendorf® Safe-Lock® microcentrifuge tube. This was followed by the addition of drug compound from prepared aliquots, before adding ATP, [γ^32P]ATP and Sph. Note: ATP stock is made up in 1M Tris pH 7.4 and 200 mM MgCl2. This allows ATP to complex with Mg and be available as a substrate.
The rest of the reaction mixture was then added to the enzyme sample (Table 1). All reactions were performed as triplicates.
Reaction mixture was prepared with sufficient volume to assay all of the required samples. To do this, each of the volumes shown was multiplied by n+1, where n is the number of samples to be assayed. Assay buffer used is made up of 100 mM tris/HCl pH 7.4, 100 mM NaCl, 1 mM sodium orthovanadate and 10 mM NaF.
The mixture was then incubated at 37° C. for 20 min (SphK1)/45 min (SphK2).
To the 100 μL assay mixture, add 270 μl of chloroform/methanol/conc. HCl (100:200:1).
20 μL of 5 M KCl was then added to the assay mixture.
70 μL of chloroform was added to create phase separation. The solution was vortexed to mix well.
The solution was then centrifuged for 5 min at 13,000×g to fully separate the phases.
The upper aqueous/methanol phase was separated by aspiration.
50 μL of the remaining lower chloroform phase […] was applied onto the TLC plate by repeatedly spotting a few microliters of liquid (<5 mm diameter circle) between each sample spot with the pipette tip. The liquid was then allowed to absorb into the plate before drying with a stream of air.
The TLC plate was developed in a glass TLC developing tank with 1-butanol/ethanol/glacial acetic acid/H2O (8:2:1:2) until the mobile phase is within 1 cm of the top of the TLC plate.
The TLC plate was then exposed to a storage phosphor screen overnight. Storage phosphor screens work by capturing images produced by ionising radiation (e.g. ^32P). The phosphorimager stimulates the screen which uses lasers to convert the latent signal to light. Light is proportional to the amount of radioactivity in the sample. The image is then quantified using standard quantification software (ImageQuant™). Whatman paper with the assay mixture dilutions, was included to assist quantification of the phosphor signal.
Once the storage phosphor screen was read using the phosphorimager, S1P spots, which have an Rf of 0.7 with the mobile phase employed, were quantified.
The S1P spot intensity can be converted to the amount of phosphate transferred/min/mg protein.

[2] = biological target: T2, SphK1a in Flpln-SphK1a cells (Flp-In T-Rex HEK293) (Homo sapiens, UniProt Q9NYA1); assay: SphK1 proteasomal degradation study (immunoblotting); assay type: cell-based; details: 10 μM test compound, 24 h
T2 construct: expressed in transfected cells; host or cells: Flp-In T-Rex HEK293 cells, doxycycline-induced
T2 sequence (Q9NYA1 whole entry): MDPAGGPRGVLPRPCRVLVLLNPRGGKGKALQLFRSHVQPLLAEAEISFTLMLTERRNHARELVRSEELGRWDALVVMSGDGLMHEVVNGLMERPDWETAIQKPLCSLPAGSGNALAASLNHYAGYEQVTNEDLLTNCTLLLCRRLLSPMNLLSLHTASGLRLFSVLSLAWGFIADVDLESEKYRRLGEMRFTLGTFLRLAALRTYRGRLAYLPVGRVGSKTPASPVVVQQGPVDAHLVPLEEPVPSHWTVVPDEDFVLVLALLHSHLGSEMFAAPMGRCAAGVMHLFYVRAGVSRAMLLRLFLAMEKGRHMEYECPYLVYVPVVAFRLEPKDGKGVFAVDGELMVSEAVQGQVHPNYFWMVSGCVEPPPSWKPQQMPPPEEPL
Protocol: These studies were performed as previously described for the drug SKI-II (C. Loveridge et al. J. Biol. Chem. 2010, 285, 38891). […] After 24 h cells were treated with 10 μm test compound, 10 μm MG132, or both. DMSO was used as the vehicle control. After a further 24 h, cells were harvested, lysed, and subjected to SDS-PAGE and immunoblotting with anti-FLAG (Sigma), anti-ERK1/2 (Promega), or anti-a-tubulin (Abcam) antibodies.

Q: Which remaining activity at 10 µM [1] does the source give for `Oc1ccc(Nc2nc(-c3ccc(Cl)cc3)cs2)cc1` [SKI-II, reference compound] here?
A: The remaining activity at 10 µM was 80 to 100%.

Q: And the “% SphK1a degradation at 10 μM” value [2]?
A: The value was 100%.
